Laboratory results: publication PMC7750480, “A hybrid approach reveals the allosteric regulation of GTP cyclohydrolase I” (Proceedings of the National Academy of Sciences of the …, 2020)
Blank lines part the entries; values can stand above or below the molecule they belong to.

Experiments:
GCH1 WT = target: T1, GCH1 WT (Homo sapiens, UniProt P30793); experiment: differential scanning fluorimetry (DSF), WT GCH1; assay type: binding; details: protein melting point in presence of GTP
T1 construct: The hGCH1 (42-250, N-terminal 6xHis Tag and TEV cleavage site); 6xHis (N); TEV cleavage site (N); made in house; host or cells: E. coli BL21(DE3)
T1 sequence (P30793 42-250): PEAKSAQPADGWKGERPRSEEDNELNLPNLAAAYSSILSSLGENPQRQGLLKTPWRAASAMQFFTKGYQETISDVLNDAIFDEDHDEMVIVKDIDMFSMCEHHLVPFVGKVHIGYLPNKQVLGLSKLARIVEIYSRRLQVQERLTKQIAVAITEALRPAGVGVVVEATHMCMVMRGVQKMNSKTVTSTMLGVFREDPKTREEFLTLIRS
Experimental: (§1) The Tm of proteins and protein complexes was determined by DSF using the Thermofluor Bio-Rad CFX384 and the Bio-Rad CFX Manager software. Ten micromolar protein solution was equipped with 5× SYPRO Orange Protein Gel Stain (Invitrogen) reaching a total volume of 10 μL. Effector molecules and GFRP were added in different concentrations to test their influence on thermal stability; 384 well plates were heated up using a temperature ramp from 15 °C to 95 °C in 1 °C/min steps.

GCH1 F122A = target: T2, GCH1 F122A (Homo sapiens, UniProt P30793, F122A); experiment: differential scanning fluorimetry (DSF), F122A; assay type: binding
T2 construct: The hGCH1 (42-250, N-terminal 6xHis Tag and TEV cleavage site); 6xHis (N); TEV cleavage site (N); made in house; host or cells: E. coli BL21(DE3)
T2 sequence (P30793 42-250 F122A): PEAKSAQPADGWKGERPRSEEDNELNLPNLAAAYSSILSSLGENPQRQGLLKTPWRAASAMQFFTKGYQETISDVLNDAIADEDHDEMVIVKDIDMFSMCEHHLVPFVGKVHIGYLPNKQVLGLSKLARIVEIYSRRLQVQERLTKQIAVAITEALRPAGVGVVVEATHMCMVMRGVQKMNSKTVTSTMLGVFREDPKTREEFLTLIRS
Experimental: as §1

GCH1 R235A = target: T3, GCH1 R235A (Homo sapiens, UniProt P30793, R235A); experiment: differential scanning fluorimetry (DSF), R235A; assay type: binding
T3 construct: The hGCH1 (42-250, N-terminal 6xHis Tag and TEV cleavage site); 6xHis (N); TEV cleavage site (N); made in house; host or cells: E. coli BL21(DE3)
T3 sequence (P30793 42-250 R235A): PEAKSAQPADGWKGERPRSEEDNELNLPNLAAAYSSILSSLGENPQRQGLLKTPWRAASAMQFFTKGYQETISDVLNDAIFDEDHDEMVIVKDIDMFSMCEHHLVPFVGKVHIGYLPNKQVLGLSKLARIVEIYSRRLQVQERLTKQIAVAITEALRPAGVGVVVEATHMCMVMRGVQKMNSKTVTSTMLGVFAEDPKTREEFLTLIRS
Experimental: as §1

GCH1 D127A = target: T4, GCH1 D127A (Homo sapiens, UniProt P30793, D127A); experiment: differential scanning fluorimetry (DSF), D127A; assay type: binding
T4 construct: The hGCH1 (42-250, N-terminal 6xHis Tag and TEV cleavage site); 6xHis (N); TEV cleavage site (N); made in house; host or cells: E. coli BL21(DE3)
T4 sequence (P30793 42-250 D127A): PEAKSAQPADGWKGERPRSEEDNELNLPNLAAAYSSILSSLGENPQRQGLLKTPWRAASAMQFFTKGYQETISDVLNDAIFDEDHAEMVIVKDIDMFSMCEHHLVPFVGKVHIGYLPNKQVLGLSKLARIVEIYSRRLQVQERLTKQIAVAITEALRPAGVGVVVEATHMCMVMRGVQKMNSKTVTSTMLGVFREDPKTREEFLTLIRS
Experimental: as §1

GCH1 E128A = target: T5, GCH1 E128A (Homo sapiens, UniProt P30793, E128A); experiment: differential scanning fluorimetry (DSF), E128A; assay type: binding; details: protein melting point in presence of GTP
T5 construct: The hGCH1 (42-250, N-terminal 6xHis Tag and TEV cleavage site); 6xHis (N); TEV cleavage site (N); made in house; host or cells: E. coli BL21(DE3)
T5 sequence (P30793 42-250 E128A): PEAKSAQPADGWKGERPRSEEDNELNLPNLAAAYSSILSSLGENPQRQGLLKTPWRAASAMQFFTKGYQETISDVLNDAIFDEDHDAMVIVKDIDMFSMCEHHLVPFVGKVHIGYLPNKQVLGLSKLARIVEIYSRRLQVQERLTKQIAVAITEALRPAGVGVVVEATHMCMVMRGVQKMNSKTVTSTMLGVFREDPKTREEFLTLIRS
Experimental: as §1

GCH1 H126A = target: T6, GCH1 H126A (Homo sapiens, UniProt P30793, H126A); experiment: differential scanning fluorimetry (DSF), H126A; assay type: binding
T6 construct: The hGCH1 (42-250, N-terminal 6xHis Tag and TEV cleavage site); 6xHis (N); TEV cleavage site (N); made in house; host or cells: E. coli BL21(DE3)
T6 sequence (P30793 42-250 H126A): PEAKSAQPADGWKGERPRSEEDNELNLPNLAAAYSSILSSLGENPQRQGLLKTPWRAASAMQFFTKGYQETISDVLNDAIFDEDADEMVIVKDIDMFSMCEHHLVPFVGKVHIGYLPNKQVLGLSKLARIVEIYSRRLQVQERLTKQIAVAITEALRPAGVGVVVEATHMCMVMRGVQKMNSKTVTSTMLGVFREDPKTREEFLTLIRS
Experimental: as §1

GCH1 R241A = target: T7, GCH1 R241A (Homo sapiens, UniProt P30793, R241A); experiment: differential scanning fluorimetry (DSF), R241A; assay type: binding
T7 construct: The hGCH1 (42-250, N-terminal 6xHis Tag and TEV cleavage site); 6xHis (N); TEV cleavage site (N); made in house; host or cells: E. coli BL21(DE3)
T7 sequence (P30793 42-250 R241A): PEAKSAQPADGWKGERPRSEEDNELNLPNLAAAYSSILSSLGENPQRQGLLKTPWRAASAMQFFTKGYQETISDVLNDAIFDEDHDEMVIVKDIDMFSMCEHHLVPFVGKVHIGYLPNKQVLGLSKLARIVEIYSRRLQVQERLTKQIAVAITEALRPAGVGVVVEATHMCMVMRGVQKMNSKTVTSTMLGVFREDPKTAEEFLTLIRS
Experimental: as §1

GCH1 = target: T8, GCH1 (Homo sapiens, UniProt P30793); experiment: STD NMR assay with active site reporter ligand GTP; assay type: binding; details: addition of another active site binder
T8 construct: The hGCH1 (42-250, N-terminal 6xHis Tag and TEV cleavage site); 6xHis (N); TEV cleavage site (N); made in house; host or cells: E. coli BL21(DE3)
T8 sequence (P30793 42-250): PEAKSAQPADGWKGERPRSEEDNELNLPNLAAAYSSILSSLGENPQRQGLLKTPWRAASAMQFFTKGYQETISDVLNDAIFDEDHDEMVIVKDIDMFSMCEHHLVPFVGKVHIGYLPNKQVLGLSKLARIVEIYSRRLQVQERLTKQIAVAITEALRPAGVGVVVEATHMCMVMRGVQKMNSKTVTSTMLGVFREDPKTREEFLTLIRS
Description: Supplemental Figure 6: Detection of product formation and STD NMR assay. A) Enzyme activity assay for GCH1 based on colorimetric detection of H2NTP or 1H-NMR detection of formate. […]
inhibitor (e.g. BH4). B) STD NMR is capable to detect GTP binding (green). Addition of another active site binder (8-oxo […]
STD NMR enhancement of substrate GTP in the presence of allosteric regulator BH4 (red). This screening assay allows for the identification of allosteric binders. C) Correlation of activity in functional NMR assay and STD NMR enhancement of active site reporter ligand GTP.
(1 picture or pasted object on this page, not shown here)

[1] = substrate: Nc1nc2c(ncn2[C@@H]2O[C@H](COP(=O)(O)OP(=O)(O)OP(=O)(O)O)[C@@H](O)[C@H]2O)c(=O)[nH]1; experiment: enzyme kinetics, H2NTP formation at 330 nm, WT GCH1; assay type: biochemical, human; details: other: substrate GTP 1-2000 µM, without GFRP, not stimulated/inhibited; pH 7.5; 37.0 °C
Experimental: In order to test the role of the key residues H126, D127, E128, R235, and R241 involved in allosteric inhibitor binding and conformational change, various point mutants were prepared and tested for their ability to be stimulated and inhibited by effector molecules in the presence or absence of GFRP. […] Enzyme activity was evaluated using an activity assay measuring the formation of the product H2NTP at 330 nm with increasing GTP concentrations.
GTPCH-I specific enzyme activity was determined by spectrometric measuring of the concentration of its direct product H2NTP. Synergy H1 (BioTek Instruments) and Gen5 2.01 software were used to evaluate H2NTP concentration and the maximal turnover rate (Vmax) within each measuring interval. H2NTP concentration was measured at 330 nm over a measuring period of 2 h using a measuring interval of 2 min to 4 min at 37 °C. Samples were prepared using 2 μM GTPCH-I, varying concentrations of GTP (1 μM to 2,000 µM) and in the absence or presence of 15 mM phenylalanine, 0.1 mM BH4, or 3 μM GFRP. The assay buffer used was 50 mM Tris/HCl, pH 7.5, 100 mM KCl. The specific enzyme activity (A) was calculated using the path length of 0.15 cm and the extinction coefficient […] = 6,300 M^−1⋅cm^−1 H2NTP. […] All enzymatic data were, at least, measured in triplicate (n = 3).

[2] = protein melting point in presence of GTP
[3] = shift of melting point with GTP

- TM + GTP (GCH1 WT): 83.2 °C
- TM + GTP (GCH1 F122A; [2]): 75.2 °C
- ΔTM WT+GTP (GCH1 F122A; [3]): 4.2 °C
- TM + GTP (GCH1 R235A; [2]): 81.2 °C
- ΔTM WT+GTP (GCH1 R235A; [3]): 11.2 °C
- TM + GTP (GCH1 D127A; [2]): 78.0 °C
- ΔTM WT+GTP (GCH1 D127A; [3]): 5.0 °C
- TM + GTP (GCH1 E128A): 78.5 °C
- TM + GTP (GCH1 H126A; [2]): 80.0 °C
- ΔTM WT+GTP (GCH1 H126A; [3]): 6.0 °C
- TM + GTP (GCH1 R241A; [2]): 86.2 °C
- ΔTM WT+GTP (GCH1 R241A; [3]): 17.7 °C
Molecule: Nc1nc2c(ncn2[C@@H]2O[C@H](COP(=O)(O)OP(=O)(O)OP(=O)(O)O)[C@@H](O)[C@H]2O)c(=O)[nH]1 [GTP, Guanosine triphosphate]

- effect on STD NMR signal of GTP (active site competition) (GCH1): loss of the signal
Molecule: Nc1nc2c([nH]c(=O)n2[C@@H]2O[C@H](COP(=O)(O)OP(=O)(O)OP(=O)(O)O)[C@@H](O)[C@H]2O)c(=O)[nH]1 [8-oxo GTP, 8-oxo-GTP]

B1: GCH1 (WT) (Homo sapiens) (protein)
chain: PEAKSAQPADGWKGERPRSEEDNELNLPNLAAAYSSILSSLGENPQRQGLLKTPWRAASAMQFFTKGYQETISDVLNDAIFDEDHDEMVIVKDIDMFSMCEHHLVPFVGKVHIGYLPNKQVLGLSKLARIVEIYSRRLQVQERLTKQIAVAITEALRPAGVGVVVEATHMCMVMRGVQKMNSKTVTSTMLGVFREDPKTREEFLTLIRS
notes: The hGCH1 (42-250, N-terminal 6xHis Tag and TEV cleavage site); 6xHis (N); TEV cleavage site (N); made in house; host or cells: E. coli BL21(DE3)
- Km [1]: 106 µM
